Drawing on patent US9187486B2 (AMGEN INC., priority 2011, dated 2015), this text covers IC50 for 14 compounds.

Experiment [1] has as its target Pim-1 (Homo sapiens (Human), UniProt P11309). In words: Pim enzyme assay (HTRF, phosphorylation of biotinylated-BAD (S112) peptide), Pim-1. The experiment is classed as biochemical. The following applies: full length recombinant Pim-1, biotinylated-BAD (S112) peptide, HTRF. The source says: (§1) Full-length human cDNAs encoding Pim-1 (MGC ID 3913552) or Pim-2 (IMAGE ID 5092935) were purchased from Invitrogen, Carlsbad, Calif. These cDNAs were used as templates in PCR reactions to produce full-length DNA clones of the PIMs. Oligonucleotide PCR primers for Pim-1 were 5′-[…]-3′ and 5′-[…]-3′. Oligonucleotide PCR primers for Pim-2 were 5′-[…]-3′ and 5′-[…]-3′. PCR products were digested with BclI and EcoRI for Pim-1 and BamHI and EcoRI for Pim-2 and ligated into a modified baculovirus transfer vector (pFastBac 1) cleaved with BamHI and EcoRI. For bacterial expression, the same cleaved PCR products encoding Pim-1 or Pim-2 were ligated into a modified E. coli expression vector pET28(a) cleaved with BamHI and EcoRI. Amino-terminal hexahistidine tags followed by a thrombin cleavage site were previously added to the vectors using standard methods of molecular biology. Recombinant baculoviruses expressing Pim-1 or Pim-2 were made using standard methods (Fastbac manual, Invitrogen, Carlsbad, Calif.). Infection of Sf9 cells was done at an m.o.i. of greater than 5 for 24-48 h. Cells were harvested by centrifugation and frozen at −80 C. For E. coli expression, cells carrying pET28-His6-Th-Pim-1 or pET28-His6-Th-Pim-2 were picked from a single colony and grown o/n in LB media. The o/n culture was used to inoculate a 2 liter flask with 500 mL media. This was grown o/n and used to inoculate 15-20 liters of Terrific Broth in a New Brunswick Scientific fermentor. The E. coli were grown at 37° C. to and OD600>1.6. The temperature was dropped to 18° C. and o/n expression was induced with 0.5 mM IPTG. Cells were harvested by centrifugation and frozen at −80° C.
(§2) The frozen cell pellets were thawed by stirring in chilled lysis buffer (0.05 M HEPES, pH 8.0, 0.25 M NaCl, 0.01 M 2-mercaptoethanol, 10% (w/v) glycerol, 0.5% (v/v) protease inhibitor cocktail (Sigma P-8340) at a ratio of 1 L/200 g cells until homogeneous. The thawed suspension was applied to a microfluidizer at 10,000 PSI to disrupt the cells and the whole lysates were clarified by centrifugation at 50,000×g for 90 min, 4° C. Imidazole was added to the clarified lysate to a final concentration of 2.5 mM and the lysate was mixed with 10 mL of Talon resin (Clontech) and the slurry rocked gently overnight at 4° C. The slurry was centrifuged at 1,000×g for 5 min, the supernatant decanted, and the resin suspended in 40 mL of lysis wash buffer (lysis buffer at 0.75 M NaCl). This step was repeated 3× and the resin was transferred to a 2.5 cm glass column. Ten column volumes of wash buffer (0.05 M HEPES, pH 8.0, 0.1 M NaCl, 0.01 M 2-mercaptoethanol, 10% (w/v) glycerol) were applied to the resin followed by 10 column volumes of elution buffer (0.05 M HEPES, pH 8.0, 0.25 M NaCl, 0.01 M 2-mercaptoethanol, 10% (w/v) glycerol, 0.1 M imidazole). Fractions were analyzed by SDS-PAGE and those containing the protein of interest were pooled and concentrated. The concentrated protein was applied to an Amersham Superdex 75 (XK 26/60) column equilibrated in 0.025 M Tris-HCl, pH 7.5, 0.1 M NaCl, 0.01 M 2-mercaptoethanol, 10% (w/v) glycerol. […] Fractions containing the monomeric protein of interest were pooled, concentrated to ˜2 mg/mL, and stored at −80° C.
(§3) The phosphorylation of biotinylated-BAD (S112) peptide by full length recombinant Pim-1, Pim-2, or Pim-3 protein was detected with streptavidin:Allophycocyanin (APC) conjugate and a europium (Eu) labeled antibody directed against phosphorylated-BAD (S112). Excitation of Eu by a high energy laser light (337 nm) leads to a transfer of energy to the APC molecule, and results in an emission at 665 nm. The fluorescence is directly proportional to the amount of phosphorylated BAD peptide present in the reaction.

Experiment [2] concerns the target Pim-2 (Homo sapiens (Human), UniProt Q9P1W9). Briefly: Pim enzyme assay (HTRF, phosphorylation of biotinylated-BAD (S112) peptide), Pim-2. The experiment is classed as biochemical.
Text: as §1, §2, §3
A general note: Time-resolved FRET reads energy transfer from a long-lived donor to a nearby acceptor.

Experiment [3] has as its system KMS-12-BM myeloma cell line. Briefly: Pim cell assay: phospho-BAD (S112) and total BAD in KMS-12-BM cells. The following applies: 1 hour and 50 minutes incubation. In kind it is cell-based. Here is the method: The KMS-12-BM myeloma cell line was used to determine the in vitro cellular inhibition of Pim kinases. Disruption of Pim signaling by Pim inhibitors was determined by measuring the levels of phospho-BAD (S112) and total BAD. […] The cells were then incubated overnight at 37° C., 5% CO2. […] In addition to the 10-point dosing curve of the test compound, DMSO alone was run as a control. This dilution in DMSO was then diluted again into cell growth medium. Aliquots (11.1 uL) of the compound diluted in growth medium were then transferred to the appropriate wells of the 96-well plates containing cells to yield a final DMSO concentration of 0.3%. The cell plates were then incubated with compound for 1 hour and 50 minutes at 37° C., 5% CO2. After the 1 hour and 50 min incubation, the cell plates were spun at 1000 RPM for 10 minutes and the compound-containing medium was removed. […] The cell plates containing lysis buffer were then immediately stored at −70° C. These prepared lysates were then assayed for phospho-(S112) and total-BAD according to the manufacturer's protocol (Meso Scale Diagnostics, Cat # K15103D-3). The plates were read on the MSD Sector Imager 6000, and results were calculated according to the assay protocol: ((% Phosphoprotein=((2×Phospho signal)/(Phospho signal+Total signal))×100)).

[4] abbreviates: 96-well, read-out: Pim-1 IC50 IP.
Where [5] appears, read: Homo sapiens, KMS-12-BM, read-out: KMS-12-BM IC50 IP.
Setting [6] is: full length recombinant Pim-2, biotinylated-BAD (S112) peptide, HTRF, 96-well, read-out: Pim-2 IC50 IP.
The mark [7] stands for this setting: Homo sapiens, KMS-12-BM, read-out: KMS12_Cell_IC50.
Setting [8] is: full length recombinant Pim-2, biotinylated-BAD (S112) peptide, HTRF, read-out: Pim2_IC50.

Read-outs that look alike come from different tables or passages of the source.

Sequence of Pim-1 (P11309 whole entry): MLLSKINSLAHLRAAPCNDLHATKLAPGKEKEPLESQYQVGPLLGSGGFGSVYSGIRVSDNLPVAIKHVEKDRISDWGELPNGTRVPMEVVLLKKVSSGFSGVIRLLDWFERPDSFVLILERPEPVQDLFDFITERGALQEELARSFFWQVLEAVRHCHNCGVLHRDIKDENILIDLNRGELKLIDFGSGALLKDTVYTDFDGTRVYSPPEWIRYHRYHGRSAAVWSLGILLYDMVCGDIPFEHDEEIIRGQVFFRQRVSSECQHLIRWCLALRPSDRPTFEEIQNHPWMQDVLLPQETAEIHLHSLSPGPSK
Sequence of Pim-2 (Q9P1W9 whole entry): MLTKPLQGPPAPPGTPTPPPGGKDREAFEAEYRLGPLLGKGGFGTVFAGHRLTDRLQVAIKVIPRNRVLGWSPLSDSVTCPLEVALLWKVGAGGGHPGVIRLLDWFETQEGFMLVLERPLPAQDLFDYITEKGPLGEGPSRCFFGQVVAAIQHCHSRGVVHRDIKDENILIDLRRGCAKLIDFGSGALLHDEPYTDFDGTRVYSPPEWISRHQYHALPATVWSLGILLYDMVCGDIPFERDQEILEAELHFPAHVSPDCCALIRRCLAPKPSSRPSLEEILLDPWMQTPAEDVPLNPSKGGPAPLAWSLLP

For `N[C@H]1CCCN(c2ccncc2Nc2nnc3ccc(-c4ncccc4F)nn23)C1` [Example 91, N-(4-((3S)-3-amino-1-piperidinyl)-3-pyridinyl)-6-(3-fluoro-2-pyridinyl)[1,2,4]triazolo[4,3-b]pyridazin-3-amine bis(2,2,2-trifluoroacetate)], the IC50 in experiment [1] (setting [4]) worked out at 5.6 nM; in experiment [2] (read-out: Pim-2 IC50 IP) it was 30.5 nM; in experiment [3] (setting [5]) it was 11300 nM.
With `O[C@@H]1CCN(c2ccncc2Nc2ncc3ccc(-c4c(F)cccc4F)nn23)C[C@H]1O` (single isomer, unassigned) [Example 35, 1-(3-((2-(2,6-difluorophenyl)imidazo[1,5-b]pyridazin-7-yl)amino)-4-pyridinyl)-3,4-trans-piperidinediol], the figures for the IC50 in experiment [1] (setting [4]), in experiment [2] (setting [6]) and in experiment [3] (setting [5]) were 2.7 nM, 8.8 nM and 667 nM, respectively.
Taken in the same sequence, the figures for `C[C@@H]1C[C@H](N)CN(c2ccncc2Nc2ncc3ccc(-c4ccccn4)nn23)C1` (relative stereo) [Example 63, N-(4-((cis)-3-amino-5-methylpiperidin-1-yl)pyridin-3-yl)-2-(pyridin-2-yl)imidazo[1,5-b]pyridazin-7-amine] were 0.3 nM, 1.3 nM and 235 nM.
Consider `N[C@H]1CCCN(c2ccncc2Nc2ncc3ccc(-c4c(F)cccc4F)nn23)C1` [Example 1, N-(4-((3S)-3-amino-1-piperidinyl)-3-pyridinyl)-2-(2,6-difluorophenyl)imidazo[1,5-b]pyridazin-7-amine tris(2,2,2-trifluoroacetate)], for which the values for the IC50 in experiment [1] (read-out: Pim_1_IC50), in experiment [2] (read-out: Pim2_IC50) and in experiment [3] (setting [7]) were 0.08 nM, 0.5 nM and 428 nM, respectively.
`C[C@H]1CCN(c2ccncc2Nc2ncc3ccc(-c4c(F)cccc4F)nn23)C[C@H]1N` (single isomer, unassigned) [Example 99, N-(4-((cis)-3-amino-4-methylpiperidin-1-yl)pyridin-3-yl)-2-(2,6-difluorophenyl)imidazo[1,5-b]pyridazin-7-amine bis(2,2,2-trifluoroacetate)]: the IC50 in experiment [1] (setting [4]) amounted to 0.3 nM; in experiment [2] (setting [6]), 1.6 nM; in experiment [3] (bis(2,2,2-trifluoroacetate), read-out: KMS-12-BM IC50 IP), 2700 nM.
With `N[C@@H]1C=C(c2ccncc2Nc2ncc3ccc(-c4c(F)cccc4F)nn23)CC[C@H]1F` (racemic) [Example 93, (2,2,2-trifluoroacetate)], the IC50 in experiment [2] (setting [6]) was determined as 15.5 nM; in experiment [3] (setting [5]), 2600 nM.
Take `CN(C)C(=O)c1ccc(F)c(-c2ccc3cnc(Nc4cnccc4N4CCC[C@H](N)C4)n3n2)c1` [Example 89, (S)-3-(7-((4-(3-aminopiperidin-1-yl)pyridin-3-yl)amino)imidazo[1,5-b]pyridazin-2-yl)-4-fluoro-N,N-dimethylbenzamide tetra(2,2,2-trifluoroacetate)]: the IC50 was 3.5 nM in experiment [1] (setting [4]), 5.3 nM in experiment [2] (setting [6]) and 1350 nM in experiment [3] (setting [5]).
On to `N[C@H]1C[C@@H](F)CN(c2ccncc2Nc2ncc3ccc(-c4c(F)cccc4F)nn23)C1` [Example 48, N-(4-((3S,5R)-3-amino-5-fluoropiperidin-1-yl)pyridin-3-yl)-2-(2,6-difluorophenyl)imidazo[1,5-b]pyridazin-7-amine tris(2,2,2-trifluoroacetate)], for which the values for the IC50 in experiment [1] (setting [4]), in experiment [2] (setting [6]) and in experiment [3] (setting [5]) were 0.8 nM, 3.2 nM and 983 nM, respectively.
With `C[C@H]1CN(c2ccncc2Nc2ncc3ccc(-c4ccc(S(C)(=O)=O)cc4F)nn23)C[C@@H](N)[C@@H]1O` [Example 23, (3R,4R,5S)-3-amino-1-(3-((2-(2-fluoro-4-(methylsulfonyl)phenyl)imidazo[1,5-b]pyridazin-7-yl)amino)-4-pyridinyl)-5-methyl-4-piperidinol], the figures for the IC50 in experiment [1] (read-out: Pim_1_IC50), in experiment [2] (setting [8]) and in experiment [3] (setting [7]) were 0.1 nM, 0.5 nM and 1400 nM, respectively.
Taken in the same sequence, the figures for `N[C@H]1CCCN(c2ccncc2Nc2ncc3ccc(-c4nccs4)nn23)C1` [Example 8, N-(4-((3S)-3-amino-1-piperidinyl)-3-pyridinyl)-2-(1,3-thiazol-2-yl)imidazo[1,5-b]pyridazin-7-amine] were 1 nM, 3 nM and 726 nM.
Taken in the same sequence, the figures for `N[C@H]1CCCN(c2ccncc2Nc2ncc3ccc(-c4cccnc4Cl)nn23)C1` [Example 6, N-(4-((3S)-3-amino-1-piperidinyl)-3-pyridinyl)-2-(2-chloro-3-pyridinyl)imidazo[1,5-b]pyridazin-7-amine (2,2,2-trifluoroacetate)] were 8 nM, 77 nM and 6660 nM.
Taken in the same sequence, the figures for `N[C@H]1CCCN(c2ccncc2Nc2ncc3ccc(-c4cccnc4F)nn23)C1` [Example 7, N-(4-((3S)-3-amino-1-piperidinyl)-3-pyridinyl)-2-(2-fluoro-3-pyridinyl)imidazo[1,5-b]pyridazin-7-amine] were 0.9 nM, 12 nM and 6600 nM.
Regarding `N[C@@H]1C=C(c2ccncc2Nc2ncc3ccc(-c4c(F)cccc4F)nn23)CCC1` (single isomer, unassigned) [Example 83, N-(4-(3-aminocyclohex-1-en-1-yl)pyridin-3-yl)-2-(2,6-difluorophenyl)imidazo[1,5-b]pyridazin-7-amine tris(2,2,2-trifluoroacetate)], the IC50 worked out at 1.1 nM in experiment [1] (setting [4]) and 1090 nM in experiment [3] (setting [5]).
Taken in the same sequence, the figures for `N[C@@H]1C=C(c2ccncc2Nc2ncc3ccc(-c4c(F)cccc4F)nn23)CCC1` (racemic) [Example 82, rac-N-(4-(3-aminocyclohex-1-en-1-yl)pyridin-3-yl)-2-(2,6-difluorophenyl)imidazo[1,5-b]pyridazin-7-amine tris(2,2,2-trifluoroacetate)] were 1.2 nM and 1200 nM.
